Laboratory results published in ChEMBL document CHEMBL1134891, “Design and synthesis of conformationally restricted eight-Membered ring diketones as potential serine protease inhibitors” (Bioorg Med Chem Lett, 2002).

What was measured:
[1] = biological target: Plasminogen (Homo sapiens) (UniProt P00747); assay: Compound was tested for percentage inhibition of plasmin in enzyme rate assays; conditions: concentration not given here
[2] = biological target: Urokinase-type plasminogen activator (Homo sapiens) (UniProt P00749); assay: Compound was tested for percentage inhibition of urokinase in enzyme rate assays; conditions: concentration not given here
[3] = biological target: Urokinase-type plasminogen activator (Homo sapiens) (UniProt P00749); assay: Compound was tested for percentage inhibition of urokinase in enzyme rate assays; NI denotes no significant inhibition at 100 uM
[4] = biological target: Plasminogen (Homo sapiens) (UniProt P00747); assay: Compound was tested for percentage inhibition of plasmin in enzyme rate assays; NI denotes no significant inhibition at 100 uM

Chain of Plasminogen (Homo sapiens) (P00747 97-580 limits assumed): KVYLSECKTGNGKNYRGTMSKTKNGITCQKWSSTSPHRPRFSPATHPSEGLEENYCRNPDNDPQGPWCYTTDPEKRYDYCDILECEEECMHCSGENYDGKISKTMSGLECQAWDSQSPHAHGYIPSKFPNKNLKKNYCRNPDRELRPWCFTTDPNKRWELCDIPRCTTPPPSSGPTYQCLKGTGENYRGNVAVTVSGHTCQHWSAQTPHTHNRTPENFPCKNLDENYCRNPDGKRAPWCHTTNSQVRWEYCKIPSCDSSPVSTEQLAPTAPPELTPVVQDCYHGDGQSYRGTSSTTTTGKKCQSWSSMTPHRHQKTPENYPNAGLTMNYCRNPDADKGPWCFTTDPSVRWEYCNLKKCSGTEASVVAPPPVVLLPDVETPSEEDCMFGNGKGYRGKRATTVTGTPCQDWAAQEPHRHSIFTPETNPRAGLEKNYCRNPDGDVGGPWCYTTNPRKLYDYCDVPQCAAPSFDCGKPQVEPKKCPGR
Chain of Plasminogen (Homo sapiens) (P00747 581-810 limits assumed): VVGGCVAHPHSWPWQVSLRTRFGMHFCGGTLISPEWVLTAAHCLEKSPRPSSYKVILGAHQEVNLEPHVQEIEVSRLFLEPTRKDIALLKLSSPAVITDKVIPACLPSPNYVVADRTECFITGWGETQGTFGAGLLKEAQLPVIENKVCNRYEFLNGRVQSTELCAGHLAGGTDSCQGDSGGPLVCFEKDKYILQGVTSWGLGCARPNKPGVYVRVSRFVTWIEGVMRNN

Structure (SMILES): CC(=O)N[C@]1(C)CC[C@]2(C)[C@H](C)CC[C@]3(CCC(=O)[C@H]32)C(=O)C1=O
- inhibition [1]: 25%
- inhibition [2]: 28%

Structure (SMILES): CC[C@]1(C)CC[C@]2(C)[C@H](C)CC[C@]3(CCC(=O)[C@H]32)C(=O)C1=O
- inhibition [3]: No inhibition
- inhibition [4]: No inhibition
